Data on 13 molecules can be found in US20040198716A1, “Cysteine protease inhimbitors” (priority 2001, published 2004).

One series deals with α-chymotrypsin (Bos taurus, UniProt P00766, DEL14-15/DEL147-148). In words: Cross-reactivity protease inhibition assay (QuantiCleave), chymotrypsin. The series is classed as biochemical. The following applies: ratio Abs450nm with inhibitor / without inhibitor; 100 μM compound. On the procedure:
(§1) To evaluate whether inhibition was specific to caspase-3 or applicable to other cysteine proteases or other proteases, inhibitor molecules were assayed for their capacity to inhibit additional non-caspase proteases. Three proteases, TPCK-trypsin, α-chymotrypsin and papain, were used to test for protease inhibition cross-reactivity. Protease inhibition assays were performed in 96-well flat-bottomed micro-titer plates with the QuantiCleave™ protease assay kit (Pierce, Rockford, Ill.) according to the manufacturer's instructions. Briefly, the assay conditions contained 100 μM compound, 2 mg/mL of succinylated-casein and 0.15 mg/mL of the protease. The assay incubated in a final volume of 150 μLs 0.05 M sodium borate pH 8.5 buffer (NaB-buffer) for 20 minutes at 25° C. After the protease reaction, 50 μLs of a trinitrobenzenesulfonic acid (TNBSA) solution (1:15, TNBSA:NaB-buffer) was added to each reaction and further incubated for 20 minutes at 25° C. Absorbance values at 450 nm were read in an Emax (Molecular Devices, Sunnyvale, Calif.) micro plate reader. Appropriate controls were performed, including known inhibitors (soybean trypsin inhibitor, aminoethyl-benzenesulfonic acid and leupeptin) for the proteases.
(§2) Relative activities in the presence of inhibitor were calculated by taking the ratio of absorbance for a reaction containing inhibitor to the absorbance for a reaction without inhibitor. Significant inhibition was determined by testing the null hypothesis of equivalence between the mean absorbance of reactions containing inhibitor and the mean absorbance of reactions without inhibitor (2 tailed t-test, 2 df).
(§3) The results are given in Table V in terms of cross-reactivities, relative activity and significant difference of 100 μM protease inhibitors on the proteases trypsin, chymotrypsin and papain.

The target of another series is T1, papain (Carica papaya, UniProt P00784).
T1 sequence (P00784 134-345): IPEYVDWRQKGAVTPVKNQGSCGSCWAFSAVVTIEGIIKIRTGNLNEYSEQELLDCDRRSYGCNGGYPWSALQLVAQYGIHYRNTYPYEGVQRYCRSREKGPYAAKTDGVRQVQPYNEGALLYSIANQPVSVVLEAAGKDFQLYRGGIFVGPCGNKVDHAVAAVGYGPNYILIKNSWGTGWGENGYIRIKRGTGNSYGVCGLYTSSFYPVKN
In words: Cross-reactivity protease inhibition assay (QuantiCleave), papain. It is filed as biochemical. To be noted: ratio Abs450nm with inhibitor / without inhibitor; 100 μM compound. As for the experimental part: as §1, §2, §3

The next series deals with cysteine protease. The experiment in a line: Cysteine protease inhibitory activity, no method given.
Series [1] has as its target T2, human recombinant caspase-3 (Homo sapiens, UniProt P42574).
T2 construct: purchased Sigma
T2 sequence (P42574 29-175 limits assumed): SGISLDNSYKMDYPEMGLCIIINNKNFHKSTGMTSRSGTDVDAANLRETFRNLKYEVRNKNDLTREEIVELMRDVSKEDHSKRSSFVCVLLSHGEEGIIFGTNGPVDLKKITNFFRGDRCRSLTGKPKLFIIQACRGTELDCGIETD
T2 sequence (P42574 176-277 limits assumed): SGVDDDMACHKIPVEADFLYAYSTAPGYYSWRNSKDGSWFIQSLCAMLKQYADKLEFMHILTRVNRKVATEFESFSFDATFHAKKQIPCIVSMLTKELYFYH
In words: In vitro high throughput caspase-3 assay. The following applies: for Percent Activity: percentage of the positive control, 20-250 μM test compound, lower = better inhibition, negative = better than control caspase inhibitor; for Caspase-3 Activity: relative activity as a fraction, values match Table II percent activity divided by 100; for Ki: calculated from IC50 according to Equation 1, read-out: Ki(app); for IC50: fixed substrate concentration of 55 μM, inhibitors 75 to 0.067 μM in duplicate. It is filed as biochemical. As for the experimental part:
Purified Human recombinant caspase-3, fluorescence labeled substrate (Acetyl-Asp-Glu-Val-Asp-7-amino-4-trifluoromethyl coumarin), and known inhibitor (Z-Asp-Glu-Val-Asp-fluoromethyl ketone) can be purchased from Sigma Chemical Co. (St. Louis, Mo.). The enzyme reactions are carried out at room temperature in 10 mM PIPES pH=7.4, 2 mM EDTA, 0.1% CHAPS, 5 mM DTT reaction buffer. Each well on the 96 well plate contains the above reaction buffer plus 55 μM fluorescence labeled substrate, 0.125 μg caspase-3, and 20-250 μM test compound. Positive and negative controls are present on each assay plate. A standard curve is generated using 7-amino-4-trifluoromethyl coumarin in the concentration range from 0.15 μM to 5.0 μM. The reactions are preferably read every 0.5 hours using a fluorescence microtiter plate reader set for 390 nm excitation and 538 nm emission for the first 4 hours after which the plates are left at room temperature overnight. One reading is taken the next morning as a final measurement.
To determine the caspase inhibitory activity of these compounds, the in vitro high throughput caspase-3 assay presented herein was utilized. Purified human recombinant caspase-3, fluorescence labeled substrate (Acetyl-Asp-Glu-Val-Asp-7-amino-4-trifluoromethyl coumarin), and known inhibitor (Z-Asp-Glu-Val-Asp-fluoromethyl ketone) were purchased from Sigma. The enzyme reactions were carried out at room temperature in 10 mM PIPES pH=7.4, 2 mM EDTA, 0.1% CHAPS, 5 mM DTT reaction buffer. Each well on the 96 well plate contained the above reaction buffer plus 55 μM fluorescence labeled substrate, 0.125 μg caspase-3, and 20-250 μM test compound. Positive and negative controls were present on each assay plate. A standard curve was generated using 7-amino-4-trifluoromethyl coumarin in the concentration range from 0.15 μM to 5.0 μM. The reactions were read every 0.5 hours using a fluorescence microtiter plate reader set for 390 nm excitation and 538 nm emission for the first 4 hours after which the plates were left at room temperature overnight. One reading was taken the next morning as a final measurement.
Ki determinations were carried out using the above assay system. […] Ki(app) was calculated according to Equation 1: [formula]
The concentration of inhibitors ranged from 75 to 0.067 μM with each inhibitor concentration assayed in duplicate. The Km for the substrate was determined from a standard Lineweaver-Burke plot.

For another series, the target named is T3, TPCK-trypsin (Bos taurus, UniProt P00760).
T3 sequence (P00760 24-246): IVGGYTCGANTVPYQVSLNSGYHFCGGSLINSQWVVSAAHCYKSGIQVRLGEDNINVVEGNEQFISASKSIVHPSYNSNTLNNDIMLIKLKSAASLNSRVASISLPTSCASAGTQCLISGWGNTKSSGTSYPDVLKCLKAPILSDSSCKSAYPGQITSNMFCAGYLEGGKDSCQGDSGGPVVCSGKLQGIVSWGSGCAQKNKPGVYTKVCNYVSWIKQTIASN
In words: Cross-reactivity protease inhibition assay (QuantiCleave), trypsin. The series is classed as biochemical. The following applies: ratio Abs450nm with inhibitor / without inhibitor; 100 μM compound. As for the experimental part:
as §1, §2, §3

The target in series [2] is T4, Human Rhinovirus serotype 1A 3C Protease (Human rhinovirus 1A, UniProt P23008).
T4 construct: used to clone the 3C Protease into the expression vector pET16-b; made in house; host or cells: E. coli BL21-DE3-pLys-S
In words: 3C Protease Biochemical Assay (FRET). To be noted: 30° C., 2-6uM substrate, 416 nM 3CP. On the procedure: Human Rhinovirus serotype 1A (ATCC) was used to clone the 3C Protease into the expression vector pET16-b and transformed for production into the E. coli strain BL21-DE3-pLys-S. 3C Protease expression was induced with 1 mM IPTG at 25° C. and purified from the soluble protein extract by chromatography on a SourceQ (Pharmacia) followed by gel filtration. HRV 3CP activity was measured by fluorescence resonance energy transfer using a dimodified decapeptide substrate MOC-[…]DNP-NH2 (7-methoxy coumarin-4-acetic acid fluorochrome and dinitrophenol quencher) with a Km value of 16.8 μM. Inhibition was measured as a change in initial velocity (V0) as a function of inhibitor (I) concentration and substrate (S) concentration. […] Fluorescence was monitored by excitation at 328 nm and emission at 393 nm with 10 nm cutoffs. Data were analyzed with the nonlinear regression analysis program EnzFitter (BioSoft) with the equation:
Ki=(I/((VmaxxS)/V0)/Ks)−I−S
Substrate concentrations used were lower than the Km of the substrate (16.8 uM) so no corrections for an S/Km term were used.

Another series relates to HeLa-H1 cells. In words: Toxicity in uninfected cells of the cell culture 3C-protease assay. The series is classed as cell-based. Also on record: key to TC50: —: the hyphens indicate no value was able to be calculated (i.e. the drug response did not cross the 50% point). To be noted: compound-treated uninfected HeLa-H1 cells, 48 hours, alamarBlue, dilution series 250-0.98 μM, several values per compound = repeat determinations; for CC50: read-out: TC50 (the source's name). On the procedure: (§4) In this assay, 96 well micro titer plates were seeded with 10^4 HeLa-H1 (ATCC) cells per well and incubated in DMEM+10% FBS (Gibco) for 24 hours at 37° C., saturated humidity and 5% CO2. Human Rhinovirus serotype 1A (ATCC) were titered to produce a 30% cell kill and added to some wells of a 96 well plate, other wells were mock infected with media only, followed by incubation at 33° C., saturated humidity and 5% CO2 for 1 hour. Compounds were dissolved in DMSO, diluted in DMEM and added in a 9 step 2-fold dilution series (250, 125, 62.5, 31.25, 15.63, 7.81, 3.91, 1.95, 0.98 μM) 1 hour after virus treatment. Plates were incubated for 48 hours at 33° C., saturated humidity and 5% CO2 in a final volume of 100 μL FBS free DMEM. Cell survival was measured by the addition of 10 μL of alamarBlue™ (BioSource), incubation at 33° C. for 45 minutes and reading in a fluorescence plate reader, excitation: 544 nm, emission: 590 nm. The inhibitory concentration 50% (IC50) was calculated as the concentration of compound that increased the percentage fluorescence in the compound-treated virus-infected cells to 50% of that produced by compound-free, uninfected cells. The toxicity concentration 50% (TC50) was calculated as the concentration of compound that decreased the percentage fluorescence in the compound-treated, uninfected cells to 50% of the compound-free, uninfected cells. The therapeutic index (Ti) was calculated by dividing the […].

The test system of series [3] is Human Rhinovirus serotype 1A. In words: Cell Culture 3C-Protease Activity Assay (protection of rhinovirus-infected cells). It is filed as cell-based. The following applies: for IC50: HeLa-H1 cells infected with Human Rhinovirus serotype 1A, 48 hours, alamarBlue cell survival, dilution series 250-0.98 μM, several values per compound = repeat determinations. On the procedure: as §4

T4 sequence (P23008 1515-1697): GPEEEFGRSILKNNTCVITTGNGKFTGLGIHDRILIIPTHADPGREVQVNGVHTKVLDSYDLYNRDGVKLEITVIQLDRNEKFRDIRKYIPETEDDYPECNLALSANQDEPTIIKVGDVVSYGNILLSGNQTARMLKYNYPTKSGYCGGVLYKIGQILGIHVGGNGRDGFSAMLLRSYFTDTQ

For `NCCc1ccc(S(=O)(=O)F)cc1` [AEBSF, reference compound], on α-chymotrypsin, the “α-Chymotrypsin Activity” value is 0.466.
On to `CC(=O)N[C@@H](CC(C)C)C(=O)N[C@@H](CC(C)C)C(=O)N[C@H](C=O)CCCNC(=N)N` [Leupeptin, leupeptin, reference compound], for which, on papain, the “Papain Activity” value worked out at 0.095.
Consider `CC(C)=CC[C@H](O)C1=CC(=O)c2c(O)ccc(O)c2C1=O` [alkannin], for which the “cysteine protease inhibitory activity” value in the series on cysteine protease is “exhibit cysteine protease inhibitory activity”.
Consider `O=c1cc(-c2ccccc2)oc2cc(O)cc(O)c12` [cpi0124], for which the “Papain Activity” value at papain is 0.445. Also, at α-chymotrypsin, the “α-Chymotrypsin Activity” value is 1.029. In series [1], the “Percent Activity” value was 51.49% and the “Caspase-3 Activity” value is reported as 0.515. In addition, the “TPCK-Trypsin Activity” value at TPCK-trypsin stood at 1.075.
Consider `O=C1C=CC(=O)c2c(O)ccc(O)c21` [cpi0131], for which the “Papain Activity” value on papain was determined as 0.505. For the same molecule, on α-chymotrypsin, the “α-Chymotrypsin Activity” value is 0.915. This molecule also showed a Ki in series [2] of 307 µM. In series [1], the “Percent Activity” value is −1.78% and the “Caspase-3 Activity” value was −0.0178. Further, the “TPCK-Trypsin Activity” value on TPCK-trypsin is given as 0.819.
On to `CC(C)=CCC1=C(O)C(=O)c2ccccc2C1=O` [cpi0133], for which the “Papain Activity” value at papain came out at 0.897. The “α-Chymotrypsin Activity” value on α-chymotrypsin is 1.081. Besides, in series [1], the “Percent Activity” value is 48.29% and the “Caspase-3 Activity” value is on record as 0.483. Moreover, the “TPCK-Trypsin Activity” value at TPCK-trypsin is given as 1.196.
As to `O=C(O)CN(CC(=O)O)Cc1cc2c(c(O)c1O)C(=O)c1ccccc1C2=O` [cpi0136.0009], in the series with HeLa-H1 cells, the CC50 is above 30 µM. For the same molecule, the IC50 in series [3] was determined as 0.2 µM. In series [1], the Ki is 6.16 µM, the IC50 was found to be 38.8 µM and the “Percent Activity” value is −0.4239%.
On to `O=C(O)CCNc1ccc(O)c2c1C(=O)c1ccccc1C2=O` [cpi0136.0012], for which the CC50 in the series with HeLa-H1 cells was above 30 µM. Also, the half-inhibitory concentration (IC50) in series [3] is 30 µM. Besides, in series [1], the Ki is 1.24 µM, the IC50 is 7.82 µM and the “Percent Activity” value is 7.846%.
Regarding `COC(=O)CCNc1ccc(O)c2c1C(=O)c1ccccc1C2=O` [cpi0136.NS131731], the TC50 entry in the series on HeLa-H1 cells is “—, and —”.
On to `CCn1cc(C(=O)O)c(=O)c2ccc(C)nc21` [cpi0176, nalidixic acid, reference compound], for which the TC50 result in the series on HeLa-H1 cells is “—, and —”. In series [2], this molecule showed a Ki of 195 µM. In series [3], the “potency as an antirhinoviral agent relative to potency as an antibiotic agent” value amounted to 10 fold.
In the case of `COc1cccc2occc(=O)c12` [cpi0409], in the series with HeLa-H1 cells, the TC50 result is “—, and —”.
In the case of `CC(C)=CC[C@@H](O)C1=CC(=O)c2c(O)ccc(O)c2C1=O` [shikonin], in the series on cysteine protease, the “cysteine protease inhibitory activity” value is listed as “exhibit cysteine protease inhibitory activity”.

B1: STI: Soybean Trypsin Inhibitor, known inhibitor control (protein, UniProt P01070 25-205, looked up)
Trypsin inhibitor A: DFVLDNEGNPLENGGTYYILSDITAFGGIRAAPTGNERCPLTVVQSRNELDKGIGTIISSPYRIRFIAEGHPLSLKFDSFAVIMLCVGIPTEWSVVEDLPEGPAVKIGENKDAMDGWFRLERVSDDEFNNYKLVFCPQQAEDDKCGDIGISIDHDDGTRRLVVSKNKPLVVQFQKLDKESL
As to B1, the “TPCK-Trypsin Activity” value with TPCK-trypsin is listed as 0.017.
